Assay results from patent publication US10968236B2, “TYK2 inhibitors and uses thereof” (Nimbus Lakshmi, Inc., priority 2015, dated 2021).

How the values were obtained:
[1] = system: GM-CSF induced pSTAT5 (JAK2-pSTAT5); experiment: GM-CSF Induced pSTAT5 in human PBMC; type: cell-based; conditions: GM-CSF 5 ng/mL
Experimental: GM-CSF Induced pSTAT5 in human PBMC. Cells are prepared for analysis as in the above procedure and 15 μl of GM-CSF (final concentration 5 ng/mL) is added for 20 minutes prior to pSTAT5 and total STAT5 analysis using cell lysates prepared and analyzed by MSD reagents as per manufacturer protocol. The final DMSO concentration of compound in the assay is 0.1%.
(§1) The compound numbers correspond to the compound numbers in Table 1. Compounds having an activity designated as “A” provided an EC50≤2 μM; compounds having an activity designated as “B” provided a EC50 of 2-20 μM, and compounds having an activity designated as “C” provided an EC50>20 μM.

[2] = system: IL-12 induced pSTAT4 (Tyk2-pSTAT4); experiment: IL-12 Induced pSTAT4 in human PBMC; type: cell-based; conditions: IL-12 1.7 ng/mL
Experimental: IL-12 Induced pSTAT4 in human PBMC. Human PBMC are isolated from buffy coat and are stored frozen for assays as needed. Cells for assay are thawed and resuspended in complete media containing serum, then cells are diluted to 1.67 E6 cells/ml so that 120 μl per well is 200,000 cells. 15 μl of compound or DMSO is added to the well at the desired concentrations and incubated at 1 hr at 37 C. 15 μl of stimulus (final concentration of 1.7 ng/mL IL-12) is added for 30 minutes prior to pSTAT4 and total STAT4 analysis using cell lysates prepared and analyzed by MSD reagents as per manufacturer protocol. The final DMSO concentration of compound in the assay is 0.1%.
as §1

[3] = molecular target: JAK2 (Homo sapiens (Human), UniProt O60674); experiment: JAK2 activity inhibition assay (radioactive kinase / Caliper assay); type: biochemical
JAK2, sequence (O60674 whole entry): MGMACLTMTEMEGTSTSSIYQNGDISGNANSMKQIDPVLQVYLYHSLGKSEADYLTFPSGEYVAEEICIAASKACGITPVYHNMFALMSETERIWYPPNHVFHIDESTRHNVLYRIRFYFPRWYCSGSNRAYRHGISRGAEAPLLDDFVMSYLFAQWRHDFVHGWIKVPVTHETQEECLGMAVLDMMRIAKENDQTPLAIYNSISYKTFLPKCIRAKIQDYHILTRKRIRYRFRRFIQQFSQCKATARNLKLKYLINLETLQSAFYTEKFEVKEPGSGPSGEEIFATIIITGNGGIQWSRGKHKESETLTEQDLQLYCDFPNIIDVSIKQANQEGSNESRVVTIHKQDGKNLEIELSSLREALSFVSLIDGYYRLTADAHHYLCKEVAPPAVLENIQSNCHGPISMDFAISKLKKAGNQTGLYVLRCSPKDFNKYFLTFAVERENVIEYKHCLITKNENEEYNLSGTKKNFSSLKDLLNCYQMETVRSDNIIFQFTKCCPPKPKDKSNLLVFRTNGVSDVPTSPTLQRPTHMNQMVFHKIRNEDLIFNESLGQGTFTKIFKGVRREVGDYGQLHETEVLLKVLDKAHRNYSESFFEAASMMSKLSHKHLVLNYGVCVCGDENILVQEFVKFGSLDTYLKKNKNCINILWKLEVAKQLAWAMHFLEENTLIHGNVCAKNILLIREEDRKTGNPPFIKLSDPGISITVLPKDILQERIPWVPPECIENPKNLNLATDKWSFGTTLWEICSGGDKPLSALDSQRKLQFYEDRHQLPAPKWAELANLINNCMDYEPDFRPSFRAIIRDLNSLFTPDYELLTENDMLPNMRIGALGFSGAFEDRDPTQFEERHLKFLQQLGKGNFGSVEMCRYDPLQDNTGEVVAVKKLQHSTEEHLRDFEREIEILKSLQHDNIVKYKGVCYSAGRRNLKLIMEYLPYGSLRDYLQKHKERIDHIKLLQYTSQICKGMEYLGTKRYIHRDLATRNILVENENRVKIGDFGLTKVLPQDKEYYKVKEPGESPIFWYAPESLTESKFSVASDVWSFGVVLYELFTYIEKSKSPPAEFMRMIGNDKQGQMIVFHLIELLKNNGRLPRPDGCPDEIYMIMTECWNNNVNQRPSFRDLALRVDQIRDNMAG

[4] = molecular target: TYK2 (Homo sapiens (Human), UniProt P29597); experiment: Tyk2 activity inhibition assay (radioactive kinase / Caliper assay); type: biochemical
TYK2, sequence (P29597 whole entry): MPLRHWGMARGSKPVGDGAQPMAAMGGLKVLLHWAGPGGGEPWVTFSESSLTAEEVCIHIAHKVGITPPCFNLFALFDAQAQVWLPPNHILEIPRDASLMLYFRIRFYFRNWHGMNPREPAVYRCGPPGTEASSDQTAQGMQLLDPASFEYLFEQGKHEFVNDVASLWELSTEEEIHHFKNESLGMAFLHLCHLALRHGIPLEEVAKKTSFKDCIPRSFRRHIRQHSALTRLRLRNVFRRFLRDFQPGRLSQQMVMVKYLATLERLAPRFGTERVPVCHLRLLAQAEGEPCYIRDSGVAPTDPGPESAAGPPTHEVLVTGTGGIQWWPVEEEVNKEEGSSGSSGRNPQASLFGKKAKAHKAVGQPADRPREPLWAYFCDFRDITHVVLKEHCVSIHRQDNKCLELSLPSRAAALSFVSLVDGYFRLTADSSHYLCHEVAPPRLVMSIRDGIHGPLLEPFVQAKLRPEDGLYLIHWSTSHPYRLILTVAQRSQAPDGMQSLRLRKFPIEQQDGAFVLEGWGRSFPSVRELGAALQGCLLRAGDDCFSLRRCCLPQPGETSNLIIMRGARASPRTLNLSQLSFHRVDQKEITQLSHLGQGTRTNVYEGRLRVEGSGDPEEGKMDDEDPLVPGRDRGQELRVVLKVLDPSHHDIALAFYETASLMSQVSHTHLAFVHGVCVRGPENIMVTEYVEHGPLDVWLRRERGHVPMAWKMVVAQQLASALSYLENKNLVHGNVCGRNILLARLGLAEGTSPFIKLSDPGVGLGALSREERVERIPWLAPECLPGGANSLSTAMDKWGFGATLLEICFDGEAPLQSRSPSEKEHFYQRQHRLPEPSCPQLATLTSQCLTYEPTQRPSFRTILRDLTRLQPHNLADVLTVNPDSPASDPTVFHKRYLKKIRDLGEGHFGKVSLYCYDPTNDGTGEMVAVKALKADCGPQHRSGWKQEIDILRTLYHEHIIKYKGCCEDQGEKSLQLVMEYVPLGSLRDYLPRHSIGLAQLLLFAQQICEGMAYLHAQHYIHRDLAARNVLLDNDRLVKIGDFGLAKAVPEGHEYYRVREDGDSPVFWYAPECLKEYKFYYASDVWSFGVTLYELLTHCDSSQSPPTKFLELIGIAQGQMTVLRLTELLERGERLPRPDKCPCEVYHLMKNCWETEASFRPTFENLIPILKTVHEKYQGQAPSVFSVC

Row | EC50 [1] [nM] | EC50 [2] [nM] | Ki [3] [nM] | Ki [4] [nM] | Compound
1 | ≤ 2000 | ≤ 2000 | ≤ 10 | ≤ 10 | N#Cc1cccc(F)c1-c1cc(Nc2ccc(N3CC[C@@]4(C[C@@H](O)CO4)C3)cn2)c2c(n1)CNC2=O [Compound I-88, 3-fluoro-2-(4-((5-((3R,5R)-3-hydroxy-1-oxa-7-azaspiro[4.4]nonan-7-yl)pyridin-2-yl)amino)-5-oxo-6,7-dihydro-5H-pyrrolo[3,4-b]pyridin-2-yl)benzonitrile]
2 | ≤ 2000 | ≤ 2000 | 10 to 100 | ≤ 10 | O=C1NCc2nc(-c3c(F)cccc3F)cc(Nc3ccc(N4C[C@H]5CC[C@@H](C4)O5)cn3)c21 [Compound I-4, 4-((5-((1R,5S)-8-oxa-3-azabicyclo[3.2.1]octan-3-yl)pyridin-2-yl)amino)-2-(2,6-difluorophenyl)-6,7-dihydro-5H-pyrrolo[3,4-b]pyridin-5-one]
3 | > 20000 | ≤ 2000 | 100 to 1000 | ≤ 10 | CC1(C)COc2cc(Nc3cc(-c4c(F)cccc4F)nc4c3C(=O)NC4)ccc21 [Compound I-70, 2-(2,6-difluorophenyl)-4-((3,3-dimethyl-2,3-dihydrobenzofuran-6-yl)amino)-6,7-dihydro-5H-pyrrolo[3,4-b]pyridin-5-one]
4 | > 20000 | ≤ 2000 | 10 to 100 | ≤ 10 | O=C1NCc2nc(-c3c(F)cccc3F)cc(Nc3ccc(N4CCC5(CC4)CC5)cn3)c21 [Compound I-20, 4-((5-(6-azaspiro[2.5]octan-6-yl)pyridin-2-yl)amino)-2-(2,6-difluorophenyl)-6,7-dihydro-5H-pyrrolo[3,4-b]pyridin-5-one]
5 | ≤ 2000 | ≤ 2000 | 10 to 100 | ≤ 10 | CC1(C)CNc2nc(Nc3cc(-c4c(F)cccc4F)nc4c3C(=O)NC4)ccc21 [Compound I-10, 2-(2,6-difluorophenyl)-4-((3,3-dimethyl-2,3-dihydro-1H-pyrrolo[2,3-b]pyridin-6-yl)amino)-6,7-dihydro-5H-pyrrolo[3,4-b]pyridin-5-one]
6 | 2000 to 20000 | ≤ 2000 | 10 to 100 | ≤ 10 | N#Cc1cccc(F)c1-c1cc(Nc2ccc(N3CCC4(C[C@H](O)CO4)C3)cn2)c2c(n1)CNC2=O (stereo in doubt) [Compound I-93, 3-fluoro-2-(4-((5-((3S,5R)-3-hydroxy-1-oxa-7-azaspiro[4.4]nonan-7-yl)pyridin-2-yl)amino)-5-oxo-6,7-dihydro-5H-pyrrolo[3,4-b]pyridin-2-yl)benzonitrile]
7 | ≤ 2000 | ≤ 2000 | ≤ 10 | ≤ 10 | N#Cc1cccc(F)c1-c1cc(Nc2ccc(N3CCC4(CC(O)CO4)C3)cn2)c2c(n1)CNC2=O (stereo in doubt) [Compound I-89, 3-fluoro-2-(4-((5-((3S,5R)-3-hydroxy-1-oxa-7-azaspiro[4.4]nonan-7-yl)pyridin-2-yl)amino)-5-oxo-6,7-dihydro-5H-pyrrolo[3,4-b]pyridin-2-yl)benzonitrile]
8 | > 20000 | > 20000 | ≥ 1000 | 10 to 100 | O=C1NCc2c1c(Nc1ccc(C(=O)N3CCOCC3)cc1)cc(-c1c(F)cccc1F)[n+]2[O-] [Compound I-84, 2-(2,6-difluorophenyl)-4-((4-(morpholine-4-carbonyl)phenyl)-amino)-5-oxo-6,7-dihydro-5H-pyrrolo[3,4-b]pyridine 1-oxide]
9 | ≤ 2000 | ≤ 2000 | ≤ 10 | ≤ 10 | O=C1NCc2nc(-c3c(F)cccc3F)cc(Nc3ccc(N4CCC5(CCOC5)CC4)cn3)c21 [Compound I-52, 4-((5-(2-oxa-8-azaspiro[4.5]decan-8-yl)pyridin-2-yl)amino)-2-(2,6-difluorophenyl)-6,7-dihydro-5H-pyrrolo[3,4-b]pyridin-5-one]
10 | 2000 to 20000 | ≤ 2000 | 10 to 100 | ≤ 10 | O=C1NCc2nc(-c3c(F)cccc3F)cc(Nc3ccc(N4C[C@H]5COC[C@H]5C4)cn3)c21 [Compound I-59, 2-(2,6-difluorophenyl)-4-((5-((3aR,6aS)-tetrahydro-1H-furo[3,4-c]pyrrol-5(3H)-yl)pyridin-2-yl)amino)-6,7-dihydro-5H-pyrrolo[3,4-b]pyridin-5-one]
11 | 2000 to 20000 | ≤ 2000 | 10 to 100 | ≤ 10 | O=C1NCc2nc(-c3c(F)cccc3F)cc(Nc3cc4c(cn3)CCN4)c21 [Compound I-17, 2-(2,6-difluorophenyl)-4-((2,3-dihydro-1H-pyrrolo[3,2-c]pyridin-6-yl)amino)-6,7-dihydro-5H-pyrrolo[3,4-b]pyridin-5-one]
12 | 2000 to 20000 | ≤ 2000 | ≤ 10 | ≤ 10 | O=C1NCc2nc(-c3c(F)cccc3F)cc(Nc3ccc(C(=O)N4CCC5(CCOCC5)CC4)cc3)c21 [Compound I-58, 4-((4-(3-oxa-9-azaspiro[5.5]undecane-9-carbonyl)phenyl)amino)-2-(2,6-difluorophenyl)-6,7-dihydro-5H-pyrrolo[3,4-b]pyridin-5-one]
13 | 2000 to 20000 | ≤ 2000 | 10 to 100 | ≤ 10 | CCNC(=O)[C@@](C)(O)c1ccc(Nc2nc(-c3c(F)cccc3F)nc3c2C(=O)NC3)cc1 [Compound I-15, (S)-2-(4-((2-(2,6-difluorophenyl)-5-oxo-6,7-dihydro-5H-pyrrolo[3,4-d]pyrimidin-4-yl)amino)phenyl)-N-ethyl-2-hydroxypropanamide]
14 | 2000 to 20000 | ≤ 2000 | 10 to 100 | ≤ 10 | N#Cc1cccc(F)c1-c1cc(Nc2ccc(N3CCOC4(CC4)C3)nc2)c2c(n1)CNC2=O [Compound I-79, 2-(4-((6-(4-oxa-7-azaspiro[2.5]octan-7-yl)pyridin-3-yl)amino)-5-oxo-6,7-dihydro-5H-pyrrolo[3,4-b]pyridin-2-yl)-3-fluorobenzonitrile]
15 | ≤ 2000 | ≤ 2000 | ≤ 10 | ≤ 10 | N#Cc1cccc(F)c1-c1cc(Nc2ccc(N3CCC4(C[C@H](O)CO4)C3)cn2)c2c(n1)CNC2=O (stereo in doubt) [Compound I-91, 3-fluoro-2-(4-((5-((3S,5S)-3-hydroxy-1-oxa-7-azaspiro[4.4]nonan-7-yl)pyridin-2-yl)amino)-5-oxo-6,7-dihydro-5H-pyrrolo[3,4-b]pyridin-2-yl)benzonitrile]
16 | > 20000 | > 20000 | ≥ 1000 | 10 to 100 | O=C1CCOc2cc(Nc3cc(-c4c(F)cccc4F)nc4c3C(=O)NC4)ccc21 [Compound I-72, 2-(2,6-difluorophenyl)-4-((4-oxochroman-7-yl)amino)-6,7-dihy-dro-5H-pyrrolo[3,4-b]pyridin-5-one]
17 | ≤ 2000 | ≤ 2000 | 10 to 100 | ≤ 10 | O=C1NCc2nc(-c3c(F)cccc3F)cc(Nc3ccc(N4CCC5(CC4)OCCO5)cn3)c21 [Compound I-62, 4-((5-(1,4-dioxa-8-azaspiro[4.5]decan-8-yl)pyridin-2-yl)amino)-2-(2,6-difluorophenyl)-6,7-dihydro-5H-pyrrolo[3,4-b]pyridin-5-one]
18 | 2000 to 20000 | ≤ 2000 | 100 to 1000 | ≤ 10 | O=C1NCc2nc(-c3c(F)cccc3F)nc(Nc3ccc4c(c3)NCC4)c21 [Compound I-1, 2-(2,6-difluorophenyl)-4-(indolin-6-ylamino)-6,7-dihydro-5H-pyrrolo[3,4-d]pyrimidin-5-one]
